Data reported in PubChem BioAssay (NCI).
“And” between values parts separate entries of the source, which are not always exact repeats. Equal entries are not always repeated.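 Assay format: 96-well plates, 48-hour exposure. GI50 = concentration required for 50% inhibition of growth. TGI: concentration producing complete growth inhibition.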

Assays:
Experiment in all cases: inhibition of tumour cell growth, NCI panel, 48 h
[1] = test system: RPMI-8226 leukemia
[2] = test system: RXF 393 renal
[3] = test system: COLO 205 colon
[4] = test system: T-47D breast
[5] = test system: HOP-92 NSCLC
[6] = test system: MDA-MB-231 breast
[7] = test system: CCRF-CEM leukemia
[8] = test system: HCT-116 colon
[9] = test system: HCT-15 colon
[10] = test system: NCI-H226 lung

Row | Structure (SMILES) | GI50 [1] | TGI [1] | GI50 [2] | TGI [2] | GI50 [3] | TGI [3] | GI50 [4] | TGI [4] | GI50 [5] | TGI [5] | GI50 [6] | TGI [6] | GI50 [7] | TGI [7] | GI50 [8] | TGI [8] | GI50 [9] | TGI [9] | GI50 [10] | TGI [10]
1 | C=C(C)[C@@H]1CCC[C@]2(C(=O)O)CC[C@]3(C)[C@@H](CC[C@@H]4[C@@]5(C)C/C(=C/c6ccncc6)C(=O)C(C)(C)[C@@H]5CC[C@]43C)[C@@H]12 | 1.8 µM | 7.5 µM | 2.09 µM | 4.47 µM | 1.64 µM | 3.25 µM | 3.98 µM | > 100 µM | 1.71 µM | 7.19 µM | 3.05 µM | 24.3 µM | 3.16 µM | > 100 µM | 1.36 µM | 2.8 µM | 1.85 µM | 4.31 µM | 4.66 µM | 53.4 µM
2 | CN1CC(C(=O)NC2(C)OC3(O)C4CCCN4C(=O)C(Cc4ccccc4)N3C2=O)C=C2c3cccc4[nH]cc(c34)CC21 (stereo not given) |  | > 100 µM |  | 40.5 µM |  | 40 µM |  | > 100 µM |  | 38.6 µM |  | 45.5 µM |  | > 100 µM |  | 48.7 µM |  | 45.9 µM |  | 95.5 µM
3 | O=[N+]([O-])c1cccc(-c2ncc(-c3ccc(Cl)cc3Cl)[nH]2)c1 | 1.08 µM | 4.68 µM | 2.25 µM | 6 µM | 3.45 µM | 11.4 µM | 6.88 µM | 28.5 µM |  | 35.4 µM | 11.7 µM | 30.9 µM | 1.49 µM | 4.48 µM | 2.21 µM | 5.95 µM | 2.39 µM | 6.82 µM | 8.03 µM | 21.6 µM
4 | COc1cc(C(=O)/C=C/c2c(C(F)(F)F)nc3sccn23)cc(OC)c1OC | 1.08 µM | 4.53 µM | 2.02 µM | 4.24 µM | 1.94 µM | 3.44 µM | 2.12 µM | 5.76 µM | 7 µM | 22.4 µM | 2.92 µM | 9.84 µM | 1.24 µM | 8.34 µM | 1.01 µM | 2.19 µM | 1.8 µM | 5.39 µM | 2.17 µM | 5.54 µM
5 | N#Cc1ccc(N2Cc3cc(Cl)ccc3OC3=C2C(=O)N(Cc2ccccc2)C3=O)cc1 | 0.28 µM | 1.06 µM | 1.54 µM | 3.05 µM | 1.21 µM | 2.92 µM | 0.714 µM | 2.58 µM | 1.45 µM | 3.09 µM | 1.74 µM | 3.99 µM | 0.226 µM | 0.827 µM | 0.284 µM | 1.25 µM | 0.628 µM | 2.95 µM | 1.93 µM | 6.78 µM
6 | O=C(CN=Cc1cccs1)CSC(c1ccccc1)c1ccccc1 | 12.1 µM | 28.7 µM | 17.1 µM | 44.1 µM | 11.7 µM | 24 µM | 20.1 µM | 84.3 µM | 20.7 µM | 51.1 µM | 24.5 µM | 95.6 µM | 20.8 µM | > 100 µM | 16.4 µM | 40.7 µM | 17.7 µM | 57.3 µM | 24 µM | 66 µM
7 | CN(C)c1ccc(Sc2ccc3nc(N)nc(N)c3c2)cc1 | 2.92 µM | 10.9 µM | 1.06 µM | 11.3 µM | 1.14 µM | 2.59 µM | 1.66 µM | 4.82 µM | 1.32 µM | 5.83 µM | 2.23 µM | 14.1 µM | 0.906 µM | 30.1 µM | 0.305 µM | 1.64 µM | 0.429 µM | 14.2 µM | 4.21 µM | 18.6 µM
8 | O=C(CC(C(=O)O)N1CCOCC1)c1ccccc1 (stereo not given) |  | 42.1 µM |  | 34.3 µM |  | 39.7 µM |  | > 100 µM |  | 38 µM |  | 32.4 µM |  | 15 µM |  | 27 µM |  | 40.8 µM |  | > 100 µM
9 | COc1ccc(N=C2NN=C(c3c[nH]c4ccccc34)CS2)cc1OC | 3.66 µM | > 29.6 µM | 6.19 µM | > 25.7 µM | 6.55 µM | > 76.5 µM | 5.04 µM | > 73.3 µM | 5.81 µM | > 58.1 µM | 8.73 µM | > 100 µM | 3.7 µM | > 100 µM | 8.25 µM | > 100 µM | 4.02 µM | > 100 µM | 15.9 µM | > 100 µM
10 | COc1cc2c(cc1OC)[C@H]1C(=O)c3cc4c(cc3[C@H]1N(C)C2=O)OCO4 |  | > 100 µM |  | > 100 µM |  | > 46.4 µM |  | > 100 µM |  | > 89.8 µM |  | > 100 µM |  | 17 µM |  | > 100 µM |  | > 100 µM |  | > 100 µM
11 | CC1SC2(CCCCC2)N(NC(=O)c2[nH]c3ccc(F)cc3c2-c2ccccc2)C1=O (stereo not given) | 41.2 µM | > 100 µM | 28.3 µM | > 100 µM | > 100 µM | > 100 µM | > 100 µM | > 100 µM | 16.9 µM | 59.9 µM | 31 µM | > 100 µM | > 100 µM | > 100 µM | 64.9 µM | > 100 µM | > 100 µM | > 100 µM | > 100 µM | > 100 µM
12 | N#CC1(C#N)C2C=CC(C3CCC=C32)C1(C#N)C#N (stereo not given) |  | 8.79 µM |  | > 10 µM |  | 3.66 µM |  | > 8.87 µM |  | > 10 µM |  | > 10 µM |  | > 7.86 µM |  | > 10 µM |  | > 10 µM |  | > 10 µM
13 | COC(=O)Nc1nc2ccc(Sc3ccc(NC(=O)Nc4cc(C(F)(F)F)ccc4F)cc3)cc2[nH]1 | 7.14 µM | 24.1 µM | 3.29 µM | 8.05 µM | 3.67 µM | 9.29 µM | 4.43 µM | 11.2 µM | 2.53 µM | 10.3 µM | 2.84 µM | 9.32 µM | 3.3 µM | 12.5 µM | 1.37 µM | 4.67 µM | 1.62 µM | 8.19 µM | 3.81 µM | 20.2 µM
14 | CC(=O)Nc1ccc(-n2cnc3cc(-c4ccc(OCCN5CCCCC5)cc4)ccc32)cc1 | 5.16 µM | 12.7 µM | 3.04 µM | 8.04 µM | 5.2 µM | 10.7 µM | 6.34 µM | 17.2 µM | 4.51 µM | 11.6 µM | 5.33 µM | 13 µM | 6.57 µM | 23.9 µM | 0.667 µM | 1.3 µM | 1.54 µM | 6.38 µM | 2.92 µM | 8.43 µM
15 | COc1cc(/C=C\c2cccnc2Nc2ccccc2)cc(OC)c1OC | 6.83 µM | 34.8 µM | 5.22 µM | 64.8 µM | 4.44 µM | 16.2 µM | 5.3 µM | 47.6 µM | 0.947 µM | 9.17 µM | 12.6 µM | > 100 µM | 7.08 µM | > 100 µM | 3.77 µM | 15.6 µM | 5.02 µM | > 100 µM | 10.8 µM | 33.2 µM
16 | C#Cc1cccc(Nc2ncnc3ccc(-c4cncc(NS(C)(=O)=O)c4)cc23)c1 | 2.18 µM | 4.93 µM | 1.68 µM | 4.84 µM | 1.68 µM | 3.94 µM | 0.209 µM | 2.77 µM | 0.447 µM | 3.73 µM | 2.2 µM | 8.06 µM | 0.82 µM | 7.31 µM | 1.45 µM | 3.29 µM | 3.47 µM | 16.7 µM | 2.99 µM | 16.8 µM
17 | CCN(CC)CCOc1ccc(C2=C(c3ccccc3)CCc3cc(OC)ccc32)cc1 | 2.62 µM | 11.3 µM | 10.2 µM | 35.9 µM | 1.53 µM | 3.04 µM | 0.811 µM | 6.86 µM | 3.64 µM | 10.9 µM | 2.26 µM | 7.44 µM | 5.59 µM | > 49.3 µM | 1.55 µM | 4.19 µM | 1.16 µM | 4.06 µM | 3.07 µM | 12.6 µM
18 | COc1ccc(N(Cc2cc(OC)c(OC)c(OC)c2)C2OC(=O)c3ccccc32)cc1 (stereo not given) | 0.539 µM | > 100 µM | 0.612 µM | > 100 µM | 0.39 µM | 5.77 µM | 78 µM | > 100 µM | 0.349 µM | > 100 µM | 1.21 µM | > 25.4 µM | 0.435 µM | > 100 µM | 0.426 µM | > 100 µM | 0.424 µM | > 100 µM | 21.8 µM | > 100 µM
19 | C[C@]12CC[C@@H]3c4ccc(O)cc4CC[C@H]3[C@@H]1CC[C@@H]2NS(=O)(=O)c1ccc(-c2ccccc2)cc1 | 2.51 µM | 11.4 µM | 2.58 µM | 8.08 µM | 1.86 µM | 3.38 µM | 3.47 µM | 49 µM | 2.09 µM | 9.68 µM | 4.58 µM | 19.6 µM | 3.34 µM | > 100 µM | 2.88 µM | 11.4 µM | 3.04 µM | 16.5 µM | 3.13 µM | 19.4 µM
20 | COc1cc(C2c3cc4c(cc3[C@@H](Nc3cccc(O)c3)C3COC(=O)[C@H]23)OCO4)cc(OC)c1O (stereo not given in full) | 0.45 µM | 9.31 µM | 0.418 µM | 9.23 µM |  | 23.1 µM |  | 53.2 µM | 0.458 µM | 0.951 µM and 9.4 µM |  | 24.2 µM | 0.237 µM | 0.973 µM and 7.66 µM | 0.804 µM | 23.3 µM |  | 46.4 µM | 0.423 µM | 0.902 µM and 4.04 µM
